Marks after values point to notes of the source that are not given here.
Legend:
[1] = test system: malondialdehyde in stomach tissue, induced by 80% ethanol; experiment: Determination of malondialdehyde (MDA); assay type: in vivo, Albino Wistar rats; conditions: mean ± SE
Protocol: Albino Wistar rats of either sex, approximately the same age, weighing 150 to 200 g and fed on a diet of standard chow were used in this study. They were randomly divided into experimental groups of six rats each. Compounds (N-1 to N-18) 12.5, 25, and 50 mg/kg were given orally in the anti-ulcer studies and intraperitoneally for gastric secretion evaluation. The rats were sacrificed, and the stomachs removed and opened along the greater curvature, After washing with saline, the gastric lesions were quantified by a person unaware of the treatments. The animal study protocol was approved by the Research and Ethics Committee of the Experimental Animal Care Society, College of Pharmacy, King Saud University, Riyadh, Saudi Arabia.
Determination of malondialdehyde (MDA): The animals were sacrificed 1 hour after ethanol administration. The stomachs were removed and each was homogenized in 0.15 mol/L KCl (at 4° C.) in a Potter-Elvehjem type C homogenizer to give a 10% w/v homogenate. Aliquots of homogenate 1 mL in volume were incubated at 37° C. for 3 hours in a metabolic shaker. Then 1 mL of 10% aqueous TCA was added and mixed. The mixture was then centrifuged at 800 g for 10 minutes. One milliliter of the supernatant was removed and mixed with 1 mL of 0.67% w/v thiobarbituric acid in water and placed in a boiling water bath for 10 minutes. The mixture was cooled and diluted with 1 mL distilled water. The absorbance of the solution was then read at 535 nm. The content of malondialdehyde (nmol/g wet tissue) (index of the magnitude of lipid peroxidation) was then calculated, by reference to a standard curve of malondialdehyde solution. Table 7 provides the effect of compounds on the levels of MDA, NP_SH, and total protein in stomach tissue induced by 80% ethanol (mean±SE).

[2] = in vivo; conditions: mouse
Source text: (§1) At the end of the study period, expired animals were counted for the calculation of LD50. The following arithmetic method from Karber (Arch. Exptl. Pathol. Pharmakol, […], 162, 480-483) was used for the determination of LD50: LD50=LD100−Σ×(a×b)/n
(§2) wherein n=total number of animals in a group; a=the difference between two successive doses of administered extract/substance; b=the average number of dead animals in two successive doses; and LD100=lethal dose causing the 100% death of all test animals.
(§3) Table 8 provides the LD50 values of the compounds determined by the Karber method.

[3] = test system: mouse; experiment: in vivo; conditions: 24 h
Source text: as §1, §2, §3

[4] = test system: Hypothermic restraint stress-induced intraluminal bleeding and gastric lesion; experiment: Hypothermic restraint stress-induced ulcers; assay type: in vivo, Albino Wistar rats; design: Gastric Lesion Ulcer Index: scale not given here; conditions: hypothermic restraint 3 h, mean ± SE
[5] = test system: Indomethacin-induced gastric mucosal lesions; experiment: Gastric lesions induced by Indomethacin; assay type: in vivo, Albino Wistar rats; design: scale not given here; conditions: i.p, 30 min before Indomethacin 30 mg/kg, mean ± SE
Source text: Albino Wistar rats of either sex, approximately the same age, weighing 150 to 200 g and fed on a diet of standard chow were used in this study. They were randomly divided into experimental groups of six rats each. […] The rats were sacrificed, and the stomachs removed and opened along the greater curvature, After washing with saline, the gastric lesions were quantified by a person unaware of the treatments. The animal study protocol was approved by the Research and Ethics Committee of the Experimental Animal Care Society, College of Pharmacy, King Saud University, Riyadh, Saudi Arabia.
Gastric lesions induced by Indomethacin: Indomethacin was suspended in 1.0% carboxymethylcellulose (CMC) in water (6 mg/mL) and administered orally to the 36 hour fasted rats at a dose of 30 mg/kg body weight. Control rats were treated similarly with an equivalent amount of vehicle. […] The animals were sacrificed 6 hours after treatment. The stomachs were excised, rinsed with normal saline and examined for ulceration. Table 3 provides the effect of compounds on Indomethacin-induced gastric mucosal lesions (mean±SE).

[6] = test system: total protein in stomach tissue, induced by 80% ethanol; experiment: Total protein in stomach tissue; assay type: in vivo, Albino Wistar rats; conditions: mean ± SE
[7] = test system: Gastric lesions induced by necrotizing agents (80% ethanol, 0.2 mol/L NaOH or 25% NaCl); experiment: Gastric lesions induced by necrotizing agents (cytoprotection); assay type: in vivo, Albino Wistar rats; conditions: i.p, 30 min before necrotizing agent, mean ± SE
[8] = test system: Gastric lesions induced by 80% ethanol; experiment: Gastric lesions induced by ethanol (ulcer index by severity scores); assay type: in vivo, Albino Wistar rats; conditions: Rattus norvegicus, po, vs 80% EtOH group, read-out: Gastric lesions induced by 80% ethanol, % change
[9] = dose 12.5, 80% ethanol-treated rats
[10] = dose 25, 80% ethanol-treated rats
[11] = dose 50, 80% ethanol-treated rats

## O=C1NC=C(C(=O)c2ccc(N3CCCCC3)cc2)C(c2ccc([N+](=O)[O-])cc2)N1 (stereo not shown) [Compound N-3, 4-(4-Nitrophenyl)-5-[4-(piperidin-1-yl)benzoyl]-3,4-dihyropyrimidin-2(1H)-one]
[1]; [9]
  MDA: 4.47 ± 0.44***^b nmol/g
[1]; [10]
  MDA: 3.07 ± 0.16***^b nmol/g
[1]; [11]
  MDA: 1.95 ± 0.05***^b nmol/g
[2]
  LD50 at 24 h: 125 mg/kg
[3]; 5 mg/kg
  Dead (of 10 animals): 0
[3]; 25 mg/kg
  Dead (of 10 animals): 0
[3]; 50 mg/kg
  Dead (of 10 animals): 2
[3]; 100 mg/kg
  Dead (of 10 animals): 5
[3]; 200 mg/kg
  Dead (of 10 animals): 8
[3]; 300 mg/kg
  Dead (of 10 animals): 10
[4]; 12.5 mg/kg
  Gastric Lesion Ulcer Index: 24.16 ± 1.70
  Intraluminal Bleeding Score: 2.83 ± 0.30
[4]; 25 mg/kg
  Gastric Lesion Ulcer Index: 17.66 ± 0.76
  Intraluminal Bleeding Score: 1.50 ± 0.22
[4]; 50 mg/kg
  Gastric Lesion Ulcer Index: 13.83 ± 0.60
  Intraluminal Bleeding Score: 1.16 ± 0.30
[5]; 12.5 mg/kg
  Ulcer Index, indomethacin-induced gastric mucosal lesions: 29.83 ± 1.66
[5]; 25 mg/kg
  Ulcer Index, indomethacin-induced gastric mucosal lesions: 20.50 ± 1.52
[5]; 50 mg/kg
  Ulcer Index, indomethacin-induced gastric mucosal lesions: 12.66 ± 1.28
[6]; [9]
  Total Protein: 58.68 ± 3.19*^b g/L
[6]; [10]
  Total Protein: 74.65 ± 3.79*^b g/L
[6]; [11]
  Total Protein: 95.80 ± 1.51***^b g/L
[7]; 12.5 mg/kg
  Ulcer Index, 0.2 mol/L NaOH: 4.50 ± 0.22.***
  Ulcer Index, 25% NaCl: 5.16 ± 0.47
  Ulcer Index, 80% EtOH: 6.83 ± 0.30
[7]; 25 mg/kg
  Ulcer Index, 0.2 mol/L NaOH: 2.66 ± 0.33
  Ulcer Index, 25% NaCl: 2.83 ± 0.30
  Ulcer Index, 80% EtOH: 4.16 ± 0.30
[7]; 50 mg/kg
  Ulcer Index, 0.2 mol/L NaOH: 1.83 ± 0.40
  Ulcer Index, 25% NaCl: 1.66 ± 0.33
  Ulcer Index, 80% EtOH: 3.00 ± 0.36
[8]; compound 12.5 mg/kg
  inhibition in vivo at 12.5 mg/kg: 33.3%
[8]; compound 25 mg/kg
  inhibition in vivo at 25 mg/kg: 53.3%
[8]; compound 50 mg/kg
  inhibition in vivo at 50 mg/kg: 60%
